“Also recorded” adds a separate entry of the source.

One assay deals with Bifidobacterium spp. Kind of assay: qPCR of bacterial populations in in vitro fecal fermentation. It counts as cell-based. The note with it: overall, 0-12 h fermentation. In general terms: In qPCR the cycle at which signal appears reflects the starting amount.
Another assay has as its system B. infantis ATCC 15697. Briefly: Bacterial growth assay (OD600). Format: cell-based, Bifidobacterium infantis. The following applies: 1% carbohydrate in sMRS+cysteine. The protocol: (§1) Coy Laboratory Products, Grass Lake, Mich.). Subsequently, the cultures are passed twice on a semi-synthetic MRS medium ([…] which is supplemented with 1% (w/v) filter-sterilized glucose as the sole carbohydrate source. […] For bifidobacteria strains, the same procedure is followed except all media are supplemented with 0.5 g/l L-cysteine/HCl. [table] After the 2nd pass in sMRS+glucose+cysteine, the cultures are washed once with 10 mL of sterile sMRS+cysteine (no carbohydrate), resuspended in 10 ml of sterile sMRS+cysteine (no carbohydrate) and then used as a 1% inoculum. The carbohydrates are sterilized with a 0.22 micron filter and used at a 1% final concentration. Cell growth is performed in 250 μL of sMRS+cysteine covered with 50 μL of mineral oil in a Bioscreen 100-well Honeycomb plate. […] The plate reader is operated in discontinuous mode, with absorbance readings performed in 30-minute intervals, and preceded by 30-second shaking intervals at maximum speed. Controls consist of inoculated medium lacking carbohydrate. […] All three plates include a positive control (glucose) and negative control (no carbohydrate). The OD600 data for each carbohydrate is corrected by subtracting the OD600 of the basal media (sMRS)+cysteine from the sample plate for each probiotic. Maximum OD is determined by inspection of the corrected growth data. OD is determined by subtracting the initial corrected OD (time point 0) from the maximum corrected OD. Samples are grown in biologically independent triplicates and the resulting growth kinetic data are expressed as the mean of these replicates. For the growth curve plots, OD600 vs. time is first plotted for the bacteria grown on medium lacking carbohydrate (sMRS). For all other carbohydrates, the OD600 data is corrected by subtracting the OD600 of sMRS.

The next assay relates to B. infantis M-63. Kind of assay: Bacterial growth assay (OD600). The note with it: 1% carbohydrate in sMRS+cysteine. Format: cell-based, Bifidobacterium infantis. The protocol: as §1
In assay [1] the test system is HT-29 cells. Briefly: HT-29 cell proliferation, BrdU assay. Format: cell-based, human. The protocol:
In a first experiment, HT-29 cells, which model the immature epithelial cells of the small intestine, are incubated in a humidified atmosphere of 5% carbon dioxide at 37 C in the presence of LNnT at concentrations of 0 mg/L (“0”), 100 mg/L (“100”), 200 mg/L (“200”), and 400 mg/L (“400”) for either 48 hours or 72 hours. The culture medium utilized is Dulbecco's Modified Eagle Medium (Life Technologies, Foster City Calif.) supplemented with 10% fetal calf serum and 2 mM glutamine. The control consists of a combination of 91.5 mg lactose and 62.4 mg galactosamine (“LG”) per Liter of the Dulbecco's Modified Eagle Medium set forth above. The impact of the LNnT at various levels and the control on HT-29 cell proliferation is measured using a conventional BrdU assay, which measures the number of cells that have recently synthesized DNA.
(§2) In a first experiment, HT-29 cells, which model the immature epithelial cells of the small intestine, are incubated in a humidified atmosphere of 5% carbon dioxide at 37° C. in the presence of LNnT or 2′FL at concentrations of 0 mg/L (“0”), 20 mg/L (“20”), 200 mg/L (“200”), and 2000 mg/L (“2000”) or in the presence of 6′SL at concentrations of 0 mg/mL (“0”), 40 mg/mL (“40”), 400 mg/mL (“400”), and 4000 mg/mL (“4000”) for 72 hours. The culture medium utilized is Dulbecco's Modified Eagle Medium (Life Technologies, Foster City Calif.) supplemented with 10% fetal calf serum and 2 mM glutamine. The controls (“energy”) consist of 91.5 mg lactose and 64.2 mg N-acetyllactosamine/L for LNnT; 133 mg lactose and 67 mg fucose/L for 2′FL; and 195 mg lactose and 205 mg/L sialic acid for 6′SL. The impact of the LNnT, 2′FL, and 6′SL at various levels and the controls on HT-29 cell proliferation is measured using a conventional BrdU assay, which measures the number of cells that have recently synthesized DNA. […] Additionally, the impact of LNnT, 2′FL, and 6′SL at various levels and the controls on the alkaline phosphatase activity per milligram of protein for HT-29 cells, which is an indicator of cell differentiation, is measured.

The subject of assay [2] is HT-29 cells. Kind of assay: Alkaline phosphatase activity per milligram of protein (cell differentiation), HT-29. It counts as cell-based, human. The following applies: Example 48: LNnT or 2′FL 20, 200, 2000 mg/L; 6′SL 40, 400; 72 hours. The protocol:
as §2

As for `CC(=O)N[C@H]1[C@H](O[C@H]2[C@@H](O)[C@@H](CO)O[C@@H](O[C@H]3[C@H](O)[C@@H](O)C(O)O[C@@H]3CO)[C@@H]2O)O[C@H](CO)[C@@H](O[C@@H]2O[C@H](CO)[C@H](O)[C@H](O)[C@H]2O)[C@@H]1O` (mixture of isomers) [LNnT, Lacto-N-neotetraose], the bifidobacteria populations entry in the assay on Bifidobacterium spp. was “may also be bifidogenic; also recorded: tended to generally increase bifidobacteria levels”. In addition, the “growth / ability to ferment (OD600)” value in the assay on B. infantis ATCC 15697 and with B. infantis M-63 was “grow well” each time. The HT-29 cell proliferation result in the assay with HT-29 cells [1] (Example 47: 100, 200, 400 mg/L, 48 or 72 hours) is given as “reduced HT-29 cell proliferation; also recorded: inhibits intestinal cell proliferation”; with HT-29 cells [1] (Example 48: LNnT or 2′FL 20, 200, 2000 mg/L, 6′SL 40, 400, 72 hours), “capable of reducing cell proliferation at higher doses; also recorded: inhibits intestinal cell proliferation in immature epithelial cells”. Moreover, the “alkaline phosphatase activity per milligram of protein (cell differentiation)” value in the assay on HT-29 cells [2] was “trend toward an increase”.

The values above are taken from patent US11337990B2, “Human milk oligosaccharides to promote growth of beneficial bacteria” (ABBOTT LABORATORIES, priority 2010, dated 2022).
